Assay results as given in ChEMBL document CHEMBL1833895, “Synthesis and biological activity of desmethoxy analogues of coruscanone A” (Bioorg Med Chem Lett, 2011).

Columns and labels:
[1] = test system: Nakaseomyces glabratus; assay: Antifungal activity against Candida glabrata 20/I after 48 hrs by microdilution method; format: functional
[2] = test system: Pichia kudriavzevii; assay: Antifungal activity against Candida krusei E28 after 24 hrs by microdilution method; format: functional; settings: E28, 24 h
[3] = test system: Candida parapsilosis; assay: Antifungal activity against Candida parapsilosis ATCC 22019 after 48 hrs by microdilution method; format: functional; settings: Lodderomyces parapsilosis, ATCC 22019, 48 h
[4] = test system: L1210; assay: Cytostatic activity against mouse L1210 cells at 10 umol/L after 72 hrs by XTT assay; format: ADME, cell-based; settings: l1210, 72 h, 10 µM
[5] = Cytostatic activity against human HeLaS3 cells after 48 hrs by XTT assay; format: ADME, cell-based; settings: HeLa S3, 48 h
[6] = test system: Nakaseomyces glabratus; assay: Antifungal activity against Candida glabrata 20/I after 24 hrs by microdilution method; format: functional
[7] = test system: Trichophyton mentagrophytes; assay: Antifungal activity against Trichophyton mentagrophytes 445 after 72 hrs by microdilution method; format: functional, organism-based; settings: Trichophyton mentagrophytes, 445, 72 h
[8] = test system: Lichtheimia corymbifera; assay: Antifungal activity against Absidia corymbifera 272 after 48 hrs by microdilution method; format: functional, organism-based; settings: Lichtheimia corymbifera, 272, 48 h
[9] = test system: Candida tropicalis; assay: Antifungal activity against Candida tropicalis 156 after 48 hrs by microdilution method; format: functional; settings: Candida tropicalis, 156, 48 h
[10] = test system: CCRF-CEM; assay: Cytostatic activity against human CCRF-CEM cells after 72 hrs by XTT assay; format: ADME, cell-based
[11] = test system: Aspergillus fumigatus; assay: Antifungal activity against Aspergillus fumigatus 231 after 24 hrs by microdilution method; format: functional, organism-based; settings: Aspergillus fumigatus, 231, 24 h
[12] = test system: HL-60; assay: Cytostatic activity against human HL60 cells at 10 umol/L after 72 hrs by XTT assay; format: ADME, cell-based; settings: hl-60, 72 h, 10 µM
[13] = test system: HT-29; assay: Cytostatic activity against human HT-29 cells at 10 umol/L after 72 hrs by XTT assay; format: ADME, cell-based; settings: ht-29, 72 h, 10 µM
[14] = test system: Candida albicans; assay: Antifungal activity against Candida albicans ATCC 44859 after 24 hrs by microdilution method; format: functional; settings: ATCC 44859, 24 h
[15] = test system: Aspergillus fumigatus; assay: Antifungal activity against Aspergillus fumigatus 231 after 48 hrs by microdilution method; format: functional, organism-based; settings: Aspergillus fumigatus, 231, 48 h
[16] = test system: Clavispora lusitaniae; assay: Antifungal activity against Candida lusitaniae 2446/I after 24 hrs by microdilution method; format: functional
[17] = test system: Pichia kudriavzevii; assay: Antifungal activity against Candida krusei E28 after 48 hrs by microdilution method; format: functional; settings: E28, 48 h
[18] = test system: Candida tropicalis; assay: Antifungal activity against Candida tropicalis 156 after 24 hrs by microdilution method; format: functional; settings: Candida tropicalis, 156, 24 h
[19] = test system: Clavispora lusitaniae; assay: Antifungal activity against Candida lusitaniae 2446/I after 48 hrs by microdilution method; format: functional
[20] = test system: Trichosporon asahii; assay: Antifungal activity against Trichosporon asahii 1188 after 48 hrs by microdilution method; format: functional; settings: Trichosporon asahii, 1188, 48 h
[21] = test system: Pichia kudriavzevii; assay: Antifungal activity against Candida krusei ATCC 6258 after 48 hrs by microdilution method; format: functional; settings: ATCC 6258, 48 h
[22] = test system: Candida albicans; assay: Antifungal activity against Candida albicans ATCC 44859 after 48 hrs by microdilution method; format: functional; settings: ATCC 44859, 48 h
[23] = test system: Pichia kudriavzevii; assay: Antifungal activity against Candida krusei ATCC 6258 after 24 hrs by microdilution method; format: functional; settings: ATCC 6258, 24 h
[24] = test system: Candida albicans; assay: Antifungal activity against Candida albicans ATCC 90028 after 48 hrs by microdilution method; format: functional; settings: ATCC 90028, 48 h
[25] = test system: Candida albicans; assay: Antifungal activity against Candida albicans ATCC 90028 after 24 hrs by microdilution method; format: functional; settings: ATCC 90028, 24 h
[26] = test system: Trichosporon asahii; assay: Antifungal activity against Trichosporon asahii 1188 after 24 hrs by microdilution method; format: functional; settings: Trichosporon asahii, 1188, 24 h
[27] = test system: Lichtheimia corymbifera; assay: Antifungal activity against Absidia corymbifera 272 after 24 hrs by microdilution method; format: functional, organism-based; settings: Lichtheimia corymbifera, 272, 24 h
[28] = Cytostatic activity against human COLO201 cells at 10 umol/L after 72 hrs by XTT assay; format: ADME, cell-based; settings: colo 201, 72 h, 10 µM
[29] = test system: Candida parapsilosis; assay: Antifungal activity against Candida parapsilosis ATCC 22019 after 24 hrs by microdilution method; format: functional; settings: Lodderomyces parapsilosis, ATCC 22019, 24 h
[30] = test system: Trichophyton mentagrophytes; assay: Antifungal activity against Trichophyton mentagrophytes 445 after 120 hrs by microdilution method; format: functional, organism-based; settings: Trichophyton mentagrophytes, 445, 120 h
[31] = test system: CCRF-CEM; assay: Cytostatic activity against human CCRF-CEM cells at 10 umol/L after 72 hrs by XTT assay; format: ADME, cell-based; settings: 10 µM
[32] = Cytostatic activity against human HeLaS3 cells at 10 umol/L after 48 hrs by XTT assay; format: ADME, cell-based; settings: hela s3, 48 h, 10 µM

Row | Structure (SMILES) | IC80 [1] | IC80 [2] | IC80 [3] | Activity [4] | IC80 [6] | IC80 [7] | IC80 [8] | IC80 [9] | IC80 [11] | Activity [12] | Activity [13] | IC80 [14] | IC80 [15] | IC80 [16] | IC80 [17] | IC80 [18] | IC80 [19] | IC80 [20] | IC80 [21] | IC80 [22] | also measured
1 | O=C1C=CC(=O)C1=Cc1ccc(Br)cc1 | 15.6 µM | 15.6 µM | 15.6 µM | Non-toxic | 15.6 µM | 15.6 µM | > 125 µM | 15.6 µM | 31.2 µM | Non-toxic | Non-toxic | 7.81 µM | 31.2 µM | 15.6 µM | 15.6 µM | 15.6 µM | 15.6 µM | 15.6 µM | 15.6 µM | 15.6 µM | IC50 [5]: 4.9 µM; IC50 [10]: 1.8 µM; IC80 [23]: 15.6 µM; IC80 [24]: 15.6 µM; IC80 [25]: 15.6 µM; IC80 [26]: 15.6 µM; IC80 [27]: > 125 µM; Activity [28]: Non-toxic; IC80 [29]: 15.6 µM; IC50 [30]: 15.6 µM
2 | COc1ccc(/C=C/C=C2C(=O)C=CC2=O)cc1 | 250 µM | 250 µM | 250 µM | Non-toxic | 250 µM | 250 µM | > 500 µM | 250 µM | 250 µM | Non-toxic | Non-toxic | 125 µM | 250 µM | 250 µM | 250 µM | 250 µM | 250 µM | 500 µM | 250 µM | 250 µM | Activity [31]: Non-toxic; IC80 [23]: 250 µM; IC80 [24]: 250 µM; IC80 [25]: 250 µM; IC80 [26]: 250 µM; IC80 [27]: > 500 µM; Activity [28]: Non-toxic; IC80 [29]: 250 µM; Activity [32]: Non-toxic; IC50 [30]: 500 µM
3 | O=C1C=CC(=O)C1=C/C=C/c1ccc(Cl)cc1 | 62.5 µM | 62.5 µM | 62.5 µM | Non-toxic | 62.5 µM | 62.5 µM | > 250 µM | 62.5 µM | 62.5 µM | Non-toxic | Non-toxic | 62.5 µM | 125 µM | 62.5 µM | 62.5 µM | 62.5 µM | 62.5 µM | 125 µM | 62.5 µM | 62.5 µM | Activity [31]: Non-toxic; IC80 [23]: 62.5 µM; IC80 [24]: 62.5 µM; IC80 [25]: 62.5 µM; IC80 [26]: 62.5 µM; IC80 [27]: > 250 µM; Activity [28]: Non-toxic; IC80 [29]: 62.5 µM; Activity [32]: Non-toxic; IC50 [30]: 250 µM
4 | O=C1C=CC(=O)C1=Cc1ccco1 | 15.6 µM | 15.6 µM | 15.6 µM | Non-toxic | 15.6 µM | 7.81 µM | > 500 µM | 15.6 µM | 15.6 µM | Non-toxic | Non-toxic | 7.81 µM | 31.2 µM | 15.6 µM | 15.6 µM | 15.6 µM | 15.6 µM | 31.2 µM | 15.6 µM | 15.6 µM | IC50 [5]: 7.3 µM; IC50 [10]: 2.5 µM; IC80 [23]: 7.81 µM; IC80 [24]: 15.6 µM; IC80 [25]: 15.6 µM; IC80 [26]: 15.6 µM; IC80 [27]: 250 µM; Activity [28]: Non-toxic; IC80 [29]: 15.6 µM; IC50 [30]: 7.81 µM
